Results taken from publication PMC5428354, “Screening of a natural compound library identifies emodin, a natural compound from Rheum palmatum Linn that inhibits DPP4” (PeerJ, 2017).
Where “and” joins values, the source holds several entries; their conditions need not be identical. Equal entries are not always repeated. Where two headings read alike, the source gives them in different places.

Assays:
Type in all cases: biochemical
DPP4 = DPP4 (Homo sapiens, UniProt P27487); assay: DPP4 activity assay (DPP4 inhibitor screening assay kit, Cayman); set-up: purchased Cayman Chemical, Ann Arbor, MI, USA; conditions: 0.5 h, 10 µM, control mean 100.0;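 note: fluorescence read at excitation 360 nm and emission 460 nm after the enzyme reaction ran 30 min at 37 °C in a 96-well plate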
DPP4, sequence (P27487 whole entry): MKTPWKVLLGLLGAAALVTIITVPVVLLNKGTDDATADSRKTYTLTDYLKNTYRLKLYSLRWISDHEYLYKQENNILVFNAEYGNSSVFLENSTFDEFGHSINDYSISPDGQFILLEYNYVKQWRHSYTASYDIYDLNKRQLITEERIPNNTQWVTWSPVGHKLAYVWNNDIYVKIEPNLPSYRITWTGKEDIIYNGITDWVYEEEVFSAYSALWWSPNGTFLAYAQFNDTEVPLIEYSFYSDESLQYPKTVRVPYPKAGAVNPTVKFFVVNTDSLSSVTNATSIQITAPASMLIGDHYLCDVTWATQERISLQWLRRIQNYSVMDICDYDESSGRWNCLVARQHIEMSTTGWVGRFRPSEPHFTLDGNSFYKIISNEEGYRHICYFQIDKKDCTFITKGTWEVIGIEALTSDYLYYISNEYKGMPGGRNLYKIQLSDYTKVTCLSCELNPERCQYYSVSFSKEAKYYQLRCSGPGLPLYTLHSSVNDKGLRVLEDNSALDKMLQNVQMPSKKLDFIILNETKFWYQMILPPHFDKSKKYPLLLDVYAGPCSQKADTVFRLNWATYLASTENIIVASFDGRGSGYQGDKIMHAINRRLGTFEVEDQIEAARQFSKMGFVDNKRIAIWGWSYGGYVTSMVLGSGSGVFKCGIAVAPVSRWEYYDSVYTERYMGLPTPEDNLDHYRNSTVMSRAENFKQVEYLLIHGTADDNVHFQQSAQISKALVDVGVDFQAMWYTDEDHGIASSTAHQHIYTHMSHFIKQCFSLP

DPP9 = target: T1, DPP9 (Homo sapiens, UniProt Q86TI2); assay: DPP9 activity assay (BPS Bioscience kit); conditions: 100 µM, Well #1-#3;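 for DPP9 assay, Emission (450 nm): 20 ng DPP9 per 100 µl reaction with DPP substrate 1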
T1 construct: purchased BPS Bioscience 800209
T1 sequence (Q86TI2 whole entry): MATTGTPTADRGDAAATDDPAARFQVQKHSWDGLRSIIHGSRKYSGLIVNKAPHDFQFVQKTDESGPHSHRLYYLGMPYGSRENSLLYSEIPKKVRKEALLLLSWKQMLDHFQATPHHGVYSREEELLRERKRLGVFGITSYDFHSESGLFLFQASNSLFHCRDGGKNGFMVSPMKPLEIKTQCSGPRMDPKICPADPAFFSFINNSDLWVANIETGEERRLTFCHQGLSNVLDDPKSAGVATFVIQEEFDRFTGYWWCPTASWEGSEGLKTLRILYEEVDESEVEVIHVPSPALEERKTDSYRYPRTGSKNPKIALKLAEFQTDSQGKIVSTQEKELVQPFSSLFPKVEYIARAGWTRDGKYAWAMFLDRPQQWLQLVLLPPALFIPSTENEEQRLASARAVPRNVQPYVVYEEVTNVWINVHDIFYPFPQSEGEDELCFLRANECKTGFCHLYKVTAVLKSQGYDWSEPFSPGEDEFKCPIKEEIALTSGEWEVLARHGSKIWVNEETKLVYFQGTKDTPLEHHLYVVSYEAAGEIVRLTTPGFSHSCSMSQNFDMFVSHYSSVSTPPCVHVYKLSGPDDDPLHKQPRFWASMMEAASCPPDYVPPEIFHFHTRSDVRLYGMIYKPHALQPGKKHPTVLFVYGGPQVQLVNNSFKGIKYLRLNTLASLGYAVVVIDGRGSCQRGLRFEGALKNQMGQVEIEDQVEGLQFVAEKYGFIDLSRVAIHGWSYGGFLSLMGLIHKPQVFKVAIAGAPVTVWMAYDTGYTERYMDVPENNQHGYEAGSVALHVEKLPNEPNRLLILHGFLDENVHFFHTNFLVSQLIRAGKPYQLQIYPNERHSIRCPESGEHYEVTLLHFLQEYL

DPP8 = DPP8 (Homo sapiens, UniProt Q6V1X1); assay: DPP8 activity assay (BPS Bioscience kit); conditions: 100 µM; Exp #1-#5; DMSO = Ctrl
DPP8, sequence (Q6V1X1 whole entry): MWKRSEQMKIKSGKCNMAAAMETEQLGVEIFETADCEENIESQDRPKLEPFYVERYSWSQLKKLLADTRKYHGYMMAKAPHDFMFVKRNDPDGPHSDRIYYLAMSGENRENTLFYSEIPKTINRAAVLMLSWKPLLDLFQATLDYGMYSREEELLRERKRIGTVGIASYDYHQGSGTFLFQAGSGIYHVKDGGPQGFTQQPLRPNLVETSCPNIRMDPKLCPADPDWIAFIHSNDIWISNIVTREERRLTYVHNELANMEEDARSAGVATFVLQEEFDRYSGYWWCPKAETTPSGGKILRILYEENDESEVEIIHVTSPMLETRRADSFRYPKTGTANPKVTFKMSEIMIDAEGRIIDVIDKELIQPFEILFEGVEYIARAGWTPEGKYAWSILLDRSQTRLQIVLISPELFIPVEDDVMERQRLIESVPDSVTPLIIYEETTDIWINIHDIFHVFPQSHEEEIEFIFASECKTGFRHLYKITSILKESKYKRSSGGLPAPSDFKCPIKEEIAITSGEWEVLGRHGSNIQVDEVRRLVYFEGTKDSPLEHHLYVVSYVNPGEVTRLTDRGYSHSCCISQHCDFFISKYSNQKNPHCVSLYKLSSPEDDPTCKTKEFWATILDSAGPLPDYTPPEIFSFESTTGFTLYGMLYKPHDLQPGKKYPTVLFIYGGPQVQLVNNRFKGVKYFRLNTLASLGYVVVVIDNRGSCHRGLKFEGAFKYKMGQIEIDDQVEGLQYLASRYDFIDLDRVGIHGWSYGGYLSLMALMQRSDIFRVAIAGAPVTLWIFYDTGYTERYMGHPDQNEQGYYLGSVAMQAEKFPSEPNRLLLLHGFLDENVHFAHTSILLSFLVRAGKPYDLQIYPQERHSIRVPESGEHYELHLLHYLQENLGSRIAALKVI
Description: A DPP8 assay kit was purchased from BPS Bioscience (Cat# 800208), and the assay protocol was followed to test for inhibitory activity on DPP8. Briefly, DPP substrate 1 was diluted to make a 100 µM stock solution, and DPP8 protein was diluted in DPP assay buffer to 2 ng/µl (20 ng/reaction). For the tested compounds, 10 µl of diluted DPP8 protein, 5 µl of diluted DPP substrate 1, 84 µl of DPP assay buffer and 1 µl of inhibitor were addedinto the assay system for a total volume of 100 µl. The reaction mixtures were prepared in duplicate on a 96-well plate and incubated at room temperature for 10 min. […]

remaining activity at 10 µM (DPP4; Figure 1A raw data, read-out: DPP4 activity in library screen, Exp 1): 44.7% | remaining activity at 10 µM (DPP4; Figure 1A raw data, read-out: DPP4 activity in library screen, Exp 2): 52.2% | remaining activity at 10 µM (DPP4; Figure 1A raw data, read-out: DPP4 activity in library screen, Exp 3): 53.9% | remaining activity at 10 µM (DPP4; mean of Exp 1-3, read-out: DPP4 activity in library screen, Mean): 50.3% | DPP9 assay, Emission (450 nm) (DPP9): 49845 and 45873 and 51642
SMILES: COc1cc(O)c2c(c1)C(=O)c1cc(C)cc(O)c1C2=O [Rheochrysidin]
DPP9 activity (DPP9; DMSO = Ctrl): 102.3 % of Ctrl and 94.2 % of Ctrl and 106.0 % of Ctrl | DPP8 activity (DPP8): 78.2 % of Ctrl and 100.6 % of Ctrl and 89.5 % of Ctrl and 95.0 % of Ctrl and 106.4 % of Ctrl
